Experiments:
Format in all cases: functional
[1] = Ability to induce the formation of microtubules using microtubule assembly assay in vitro relative to paclitaxel ED50 = 1
[2] = In vitro cytotoxicity against B16 melanoma cells relative to paclitaxel ED50 = 1
[3] = In vitro cytotoxicity against P388 cells relative to paclitaxel ED50 = 1

Compound	Ratio [1]	Ratio [2]	Ratio [3]
CC(=O)O[C@H]1C(=O)[C@@]2(C)[C@H]([C@H](OC(=O)c3ccccc3)[C@]3(O)C[C@H](OC(=O)[C@H](O)[C@@H](NC(=O)c4cccc(N=[N+]=[N-])c4)c4ccccc4)C(C)=C1C3(C)C)[C@]1(OC(C)=O)CO[C@@H]1C[C@@H]2O	0.81	2.6	
CC(=O)O[C@H]1C(=O)[C@@]2(C)[C@H]([C@H](OC(=O)c3cccc(N=[N+]=[N-])c3)[C@]3(O)C[C@H](OC(=O)[C@H](O)[C@@H](NC(=O)c4ccccc4)c4ccccc4)C(C)=C1C3(C)C)[C@]1(OC(C)=O)CO[C@@H]1C[C@@H]2O	0.4	0.65	0.08
CC(=O)O[C@H]1C(=O)[C@@]2(C)[C@H]([C@H](OC(=O)c3cccc(N=[N+]=[N-])c3)[C@]3(O)C[C@H](OC(=O)[C@H](O)[C@@H](NC(=O)OC(C)(C)C)c4ccccc4)C(C)=C1C3(C)C)[C@]1(OC(C)=O)CO[C@@H]1C[C@@H]2O	1.2	0.37	
CC(=O)O[C@@]12CO[C@@H]1C[C@H](O)[C@@]1(C)C(=O)[C@H](O)C3=C(C)[C@@H](OC(=O)[C@H](O)[C@@H](NC(=O)OC(C)(C)C)c4ccccc4)C[C@@](O)([C@@H](OC(=O)c4ccccc4)[C@H]21)C3(C)C.O.O.O [DOCETAXEL]	0.45	0.41	
CC(=O)O[C@H]1C(=O)[C@@]2(C)[C@H]([C@H](OC(=O)c3ccccc3)[C@]3(O)C[C@H](OC(=O)[C@H](O)[C@@H](NC(=O)c4ccc(N=[N+]=[N-])cc4)c4ccccc4)C(C)=C1C3(C)C)[C@]1(OC(C)=O)CO[C@@H]1C[C@@H]2O	2	4.6	
CC(=O)O[C@H]1C(=O)[C@@]2(C)[C@H]([C@H](OC(=O)c3ccccc3)[C@]3(O)C[C@H](OC(=O)[C@H](O)[C@@H](NC(=O)c4cc(N=[N+]=[N-])cc([N+](=O)[O-])c4)c4ccccc4)C(C)=C1C3(C)C)[C@]1(OC(C)=O)CO[C@@H]1C[C@@H]2O	3	17.4	
CC(=O)O[C@H]1C(=O)[C@@]2(C)[C@H]([C@H](OC(=O)c3ccccc3)[C@]3(O)C[C@H](OC(=O)[C@H](O)[C@@H](NC(=O)c4ccccc4)c4ccccc4)C(C)=C1C3(C)C)[C@]1(OC(C)=O)CO[C@@H]1C[C@@H]2O [PACLITAXEL]	1	1	

From ChEMBL document CHEMBL1128856, “Paclitaxel and docetaxel photoaffinity labels” (1995)
